By IC50 is commonly meant the concentration that inhibits the measured activity by half.

Here are results for 1 compound from US20050004185A1, “Polyene polyketides, processes for their production and their use as pharmaceuticals” (priority 2003, published 2005).

One assay has as its system A549/ATCC. Description: In vitro cytotoxic efficacy (MTT). The assay is classed as cell-based. Conditions: Homo sapiens; Non-small cell lung, A549/ATCC; 96 h, MTT; read-out: IC50.
The subject of another assay is C. albicans (Calb). As to the kind of experiment: MIC broth microdilution assay (NCCLS M27-A). The assay is classed as cell-based. Conditions: Candida albicans, 24 hrs, read-out: Minimal Inhibitory Concentrations. (In general: In broth dilution the organism is exposed to a series of concentrations in liquid medium.)
The subject of a further assay is NCI-H460. As to the kind of experiment: In vitro cytotoxic efficacy (MTT). The assay is classed as cell-based. Conditions: Homo sapiens; Non-small cell lung, NCI-H460; 96 h, MTT; read-out: IC50.
For the next assay, the system named is S. cerevisiae (Scer). Description: MIC broth microdilution assay (NCCLS M27-A). Conditions: Saccharomyces cerevisiae, 24 h, read-out: Minimal Inhibitory Concentrations.
For the next assay, the system named is DU-145. Description: In vitro cytotoxic efficacy (MTT). The assay is classed as cell-based. Conditions: Homo sapiens, Prostate, 96 h.
A further assay concerns C. albicans (Ctro). As to the kind of experiment: MIC broth microdilution assay (NCCLS M27-A). The assay is classed as cell-based. Conditions: Candida albicans; C. albicans (Ctro), 24 hrs; read-out: Minimal Inhibitory Concentrations.
The next assay has as its system Candida sp. (Cflu). As to the kind of experiment: MIC broth microdilution assay (NCCLS M27-A). The assay is classed as cell-based. Conditions: 24 hrs, read-out: Minimal Inhibitory Concentrations.
The test system of another assay is C. glabrata (Cgla). Description: MIC broth microdilution assay (NCCLS M27-A). It counts as cell-based. Conditions: Nakaseomyces glabratus, 24 hrs, read-out: Minimal Inhibitory Concentrations.
The next assay has as its system A498. As to the kind of experiment: In vitro cytotoxic efficacy (MTT). Conditions: Homo sapiens, A498, 96 h.
The next assay deals with MDA-MB-231/ATCC. As to the kind of experiment: In vitro cytotoxic efficacy (MTT). Conditions: Homo sapiens, MDA-MB-231, 96 h.
The subject of a further assay is HT29. Description: In vitro cytotoxic efficacy (MTT). It counts as cell-based. Conditions: Homo sapiens, HT-29; Colon, HT29; 96 h, MTT; read-out: IC50.
In another assay the test system is MCF7. As to the kind of experiment: In vitro cytotoxic efficacy (MTT). The assay is classed as cell-based. Conditions: Homo sapiens; Breast, MCF7; 96 h, MTT; read-out: IC50.
The test system of the next assay is SNB-19. Description: In vitro cytotoxic efficacy (MTT). It counts as cell-based. Conditions: Homo sapiens; CNS, SNB-19; 96 h, MTT; read-out: IC50.
The subject of the next assay is SK-OV3. Description: In vitro cytotoxic efficacy (MTT). It counts as cell-based. Conditions: Homo sapiens, SK-OV-3; Ovarian, SK-OV3; 96 h, MTT; read-out: IC50.
In another assay the test system is PC-3. Description: In vitro cytotoxic efficacy (MTT). Conditions: Homo sapiens, PC-3, 96 h.
Another assay has as its system PANC-1. As to the kind of experiment: In vitro cytotoxic efficacy (MTT). The assay is classed as cell-based. Conditions: Homo sapiens, Pancreatic, 96 h.
A further assay has as its system OVCAR-3. Description: In vitro cytotoxic efficacy (MTT). Conditions: Homo sapiens, Ovarian, 96 h. It counts as cell-based.
The test system of a further assay is LB1319-MEL. As to the kind of experiment: In vitro cytotoxic efficacy (MTT). It counts as cell-based. Conditions: Melanoma, 96 h.

Converted amounts (≈) assume the structure as drawn.

On to `C\C(=C/C=C/C=C/CC/C=C/C(C)C(O)C(C)C(O)/C=C/C=C/C=C/C=C/C=C/C=C/CC(OS(=O)(=O)O)C(C)C(=O)CC(O)CC(O)/C=C/CC(O)CC(O)CC(O)/C=C/CC(O)CC(O)/C=C/CC(O)CC(O)CCCNC(=N)N)C(=O)O` (stereo not drawn) [Compound 1], for which the IC50 in the assay on A549/ATCC was found to be 12 µM; in the assay with NCI-H460, 13 µM; with DU-145 it was 8 µM; in the assay with A498, 13 µM; in the assay with MDA-MB-231/ATCC, 12 µM; in the assay with HT29, 23 µM. The IC50 in the assay with MCF7 is 18 µM; in the assay on SNB-19, 10 µM; in the assay with SK-OV3 it was 15 µM; in the assay with PC-3, 10 µM; in the assay with PANC-1, 15 µM; in the assay on OVCAR-3, 12 µM. The IC50 in the assay on LB1319-MEL worked out at 11 µM. Besides, the MIC with C. albicans (Calb) was 4 µg/mL (≈ 3.28 µM); in the assay on S. cerevisiae (Scer), 4 µg/mL (≈ 3.28 µM); in the assay with C. albicans (Ctro), 4 µg/mL (≈ 3.28 µM); with Candida sp. (Cflu), 8 µg/mL (≈ 6.57 µM); in the assay with C. glabrata (Cgla), 4 µg/mL (≈ 3.28 µM).
